Data published in article PMC2869248 (Psychopharmacology, 2010).
pEC50, pKi: −log10 of the molar value.

How the values were obtained:
[1] = target: T1, cloned human KOR (hKOR), kappa-opioid receptor (Homo sapiens, UniProt P41145)
[2] = target: T1, cloned human KOR (hKOR), kappa-opioid receptor; test: biochemical

T1 sequence (P41145 whole entry): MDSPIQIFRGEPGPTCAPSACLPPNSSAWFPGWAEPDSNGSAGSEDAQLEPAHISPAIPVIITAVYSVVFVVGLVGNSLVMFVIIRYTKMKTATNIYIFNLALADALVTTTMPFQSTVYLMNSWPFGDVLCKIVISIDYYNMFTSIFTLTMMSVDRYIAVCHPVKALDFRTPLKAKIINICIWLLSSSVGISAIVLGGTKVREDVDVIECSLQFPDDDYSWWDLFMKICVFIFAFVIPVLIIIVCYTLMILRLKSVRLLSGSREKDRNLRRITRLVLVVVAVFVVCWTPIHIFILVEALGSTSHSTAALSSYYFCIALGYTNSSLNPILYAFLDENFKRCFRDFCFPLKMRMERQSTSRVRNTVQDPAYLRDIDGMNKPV

CNC1(c2ccccc2Cl)CCCCC1=O (centres unmarked) [ketamine]
pKi [1]: 4.60 | pEC50 [2]: 4.54
